18 compounds from ChEMBL document CHEMBL2016532, “Novel potent dual inhibitors of CK2 and Pim kinases with antiproliferative activity against cancer cells” (Bioorg Med Chem Lett, 2012) can be followed below.

Broadly, the IC50 is the concentration at which inhibition is half-maximal. The EC50 is the concentration needed to bring the measured effect to its halfway point.

Test [1] concerns the target Serine/threonine-protein kinase pim-1 (Homo sapiens, UniProt P11309). Description: Inhibition of human recombinant Pim1 using RSRHSSYPAGT as substrate and 30 uM ATP by radiometric assay.
Test [2] concerns the target Serine/threonine-protein kinase pim-2 (Homo sapiens, UniProt Q9P1W9). Briefly: Inhibition of human recombinant Pim2 using RSRHSSYPAGT as substrate and 5 uM ATP by radiometric assay.
For test [3], the target named is Casein kinase II alpha/beta (Homo sapiens, UniProt P68400). The test is classed as protein-complex assay.
In a further test the test system is BXPC-3. Briefly: Antiproliferative activity against human BxPC3 cells after 48 hrs by alamar blue assay. The test is classed as functional, cell-based. The note with it: BXPC-3, 48 h. (In general: Alamar Blue is a resazurin reagent that responds to reducing activity.)
Test [4] is described as follows: Antiproliferative activity against human SUM149PT cells after 48 hrs by alamar blue assay. The test is classed as functional, cell-based.
For a further test, the system named is K562. Description: Antiproliferative activity against human K562 cells after 48 hrs by alamar blue assay. The test is classed as functional, cell-based. To be noted: K562, 48 h.
For another test, the system named is MV4-11. Description: Antiproliferative activity against human MV411 cells after 48 hrs by alamar blue assay. The test is classed as functional, cell-based. To be noted: MV4-11, 48 h.
For test [5], the system named is MDA-MB-453 (Homo sapiens). Description: Antiproliferative activity against human MDA-MB-453 cells after 48 hrs by alamar blue assay. To be noted: MDA-MB-453, 48 h.
Test [6] addresses T1, Receptor-type tyrosine-protein kinase FLT3 (Homo sapiens, UniProt P36888).
T1 sequence (P36888 whole entry): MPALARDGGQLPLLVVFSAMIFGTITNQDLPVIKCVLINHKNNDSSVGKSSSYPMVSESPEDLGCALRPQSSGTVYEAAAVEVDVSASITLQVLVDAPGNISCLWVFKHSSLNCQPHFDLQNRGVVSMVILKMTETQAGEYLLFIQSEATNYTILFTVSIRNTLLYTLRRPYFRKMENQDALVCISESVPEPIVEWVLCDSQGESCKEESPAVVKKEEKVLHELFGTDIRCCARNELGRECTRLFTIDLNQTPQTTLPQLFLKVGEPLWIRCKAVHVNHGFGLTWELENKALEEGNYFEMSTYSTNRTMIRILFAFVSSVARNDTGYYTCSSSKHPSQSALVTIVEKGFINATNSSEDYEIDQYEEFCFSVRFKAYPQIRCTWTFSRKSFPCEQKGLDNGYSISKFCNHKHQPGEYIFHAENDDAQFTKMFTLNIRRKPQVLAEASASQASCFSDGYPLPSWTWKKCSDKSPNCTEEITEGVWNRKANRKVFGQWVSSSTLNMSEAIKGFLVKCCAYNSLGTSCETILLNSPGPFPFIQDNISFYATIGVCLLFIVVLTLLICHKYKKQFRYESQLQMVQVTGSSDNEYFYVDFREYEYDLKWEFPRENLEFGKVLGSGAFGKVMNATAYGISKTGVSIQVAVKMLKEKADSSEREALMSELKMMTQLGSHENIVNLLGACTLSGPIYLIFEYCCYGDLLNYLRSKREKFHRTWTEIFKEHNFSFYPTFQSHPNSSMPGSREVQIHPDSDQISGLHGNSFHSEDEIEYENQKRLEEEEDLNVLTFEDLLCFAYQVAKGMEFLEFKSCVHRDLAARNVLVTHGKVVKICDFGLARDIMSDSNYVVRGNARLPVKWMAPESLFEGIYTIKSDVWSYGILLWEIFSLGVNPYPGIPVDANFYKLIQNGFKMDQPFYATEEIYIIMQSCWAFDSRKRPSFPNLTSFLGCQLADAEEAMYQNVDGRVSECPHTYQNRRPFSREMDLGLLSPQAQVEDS
Briefly: Inhibition of Flt3.

Chain of Serine/threonine-protein kinase pim-2 (Q9P1W9 whole entry): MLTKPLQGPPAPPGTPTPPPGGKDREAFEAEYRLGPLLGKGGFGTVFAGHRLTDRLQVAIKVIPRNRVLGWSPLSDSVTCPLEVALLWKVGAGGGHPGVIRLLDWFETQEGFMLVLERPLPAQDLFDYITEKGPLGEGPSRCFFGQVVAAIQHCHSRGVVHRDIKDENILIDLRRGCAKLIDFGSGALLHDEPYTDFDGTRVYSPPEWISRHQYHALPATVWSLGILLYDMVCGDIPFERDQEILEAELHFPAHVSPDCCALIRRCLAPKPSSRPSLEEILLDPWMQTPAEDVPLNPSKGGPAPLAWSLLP
Chain of Serine/threonine-protein kinase pim-1 (P11309 whole entry): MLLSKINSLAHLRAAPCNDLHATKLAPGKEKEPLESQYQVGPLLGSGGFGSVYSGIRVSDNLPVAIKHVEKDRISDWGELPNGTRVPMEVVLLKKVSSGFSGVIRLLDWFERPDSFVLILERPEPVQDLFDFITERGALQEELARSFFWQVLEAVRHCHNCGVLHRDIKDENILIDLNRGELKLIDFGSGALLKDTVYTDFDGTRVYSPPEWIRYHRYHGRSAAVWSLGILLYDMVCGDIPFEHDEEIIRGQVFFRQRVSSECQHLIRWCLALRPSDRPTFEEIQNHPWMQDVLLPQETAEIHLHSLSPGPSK
Chain of Casein kinase II alpha/beta (P67870 whole entry): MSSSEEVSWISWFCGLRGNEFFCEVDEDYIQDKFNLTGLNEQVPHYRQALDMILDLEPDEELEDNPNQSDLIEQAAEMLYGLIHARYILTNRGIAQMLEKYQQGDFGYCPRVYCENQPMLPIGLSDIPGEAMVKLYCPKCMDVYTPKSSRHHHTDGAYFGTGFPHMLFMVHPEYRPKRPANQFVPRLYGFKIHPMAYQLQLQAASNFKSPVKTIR
Chain of Casein kinase II alpha/beta (P68400 whole entry): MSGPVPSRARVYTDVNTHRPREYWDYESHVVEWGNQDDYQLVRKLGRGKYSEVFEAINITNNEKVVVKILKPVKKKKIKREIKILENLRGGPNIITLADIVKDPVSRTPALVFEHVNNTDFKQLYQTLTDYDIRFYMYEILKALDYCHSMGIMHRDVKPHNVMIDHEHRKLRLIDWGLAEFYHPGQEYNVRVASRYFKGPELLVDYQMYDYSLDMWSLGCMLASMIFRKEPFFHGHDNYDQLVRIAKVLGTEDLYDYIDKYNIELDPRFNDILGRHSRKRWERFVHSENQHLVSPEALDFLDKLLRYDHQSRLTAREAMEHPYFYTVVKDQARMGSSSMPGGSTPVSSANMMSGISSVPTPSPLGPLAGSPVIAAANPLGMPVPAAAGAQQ

Take `c1ccc(Nc2nc3c(-c4nnc[nH]4)cccc3c3sccc23)cc1`: the IC50 in test [1] amounted to 4 nM; in [2] it was 15 nM; in test [3] it was 10 nM. In addition, the EC50 with BXPC-3 is more than 30000 nM; in test [4], 7000 nM; in the test with K562 it was 6100 nM; in the test on MV4-11, 2000 nM; in [5], 7800 nM.

For `Clc1ccccc1Nc1nc2c(-c3nnc[nH]3)cccc2c2sccc12`, the IC50 in [1] was 3 nM; in test [6], more than 10000 nM; in test [2], 2 nM; in test [3] it was 9 nM. Moreover, the EC50 in the test with BXPC-3 was determined as 11700 nM; in test [4], 4400 nM; with K562, 3600 nM; in the test on MV4-11 it was 500 nM; in test [5], 2600 nM.

On to `Fc1ccccc1Nc1nc2c(-c3nnc[nH]3)cccc2c2sccc12`, for which the IC50 in test [1] turned out to be 2 nM; in [2], 2 nM; in test [3], 4 nM. Further, the EC50 in the test with BXPC-3 is more than 30000 nM; in test [4], 9500 nM; in the test on K562 it was 3600 nM; in the test with MV4-11 it was 600 nM; in test [5], 7100 nM.

On to `Clc1ccccc1Nc1nc2c(-c3nnc[nH]3)cccc2c2cscc12`, for which the IC50 in [1] is 7 nM; in [6] it was more than 10000 nM; in [2] it was 8 nM; in [3] it was 20 nM. Also, the EC50 in the test on BXPC-3 is 4500 nM; in test [4] it was 2600 nM; with K562, more than 10000 nM; in the test on MV4-11, 600 nM; in test [5] it was 4900 nM.

For `Clc1ccccc1Nc1nc2c(-c3nnc[nH]3)cccc2c2ccsc12`, the IC50 in test [1] was 4 nM; in test [6] it was more than 10000 nM; in test [2], 6 nM; in test [3], 21 nM. The EC50 in the test with BXPC-3 was 16100 nM; in test [4], 2600 nM; in the test with K562, more than 10000 nM; in the test on MV4-11, 3200 nM; in [5] it was 1300 nM.

Take `Clc1ccccc1Nc1nc2c(-c3nnc[nH]3)cccc2c2scnc12`: the results for the 50% inhibitory concentration (IC50) in [1], in [2] and in [3] were 8 nM, 9 nM and 39 nM, respectively. The EC50 with BXPC-3 is 2800 nM; in test [4], 12600 nM; with K562, more than 10000 nM; in the test with MV4-11, 4700 nM; in test [5], 2000 nM.

On to `Clc1ccccc1Nc1nc2c(-c3nnc[nH]3)cccc2n2cccc12`, for which the IC50 in [1] was 12 nM; in [6], more than 10000 nM; in test [2] it was 41 nM; in test [3], 89 nM.

On to `Fc1ccccc1Nc1nc2c(-c3nnc[nH]3)cccc2n2cccc12`, for which the IC50 in test [1] is 8 nM; in test [2] it was 20 nM; in test [3], 89 nM. Further, the EC50 in the test with BXPC-3 is more than 30000 nM; in test [4], 22800 nM; in the test with K562, 8200 nM; in the test on MV4-11, 3700 nM; in [5], 28400 nM.

`Fc1ccccc1Nc1nc2c(-c3nnc[nH]3)cccc2n2cncc12`: the IC50 was found to be 38 nM in test [1], 43 nM in test [2] and 35 nM in [3]. Further, the EC50 with BXPC-3 was determined as 15000 nM; in test [4], 5400 nM; in the test on K562 it was 5400 nM; with MV4-11, 100 nM; in [5] it was 3100 nM.

Turning to `Fc1cccc(Nc2nc3c(-c4nnc[nH]4)cccc3c3sccc23)c1`, the figures for the IC50 in [1], in test [2] and in test [3] were 3 nM, 5 nM and 7 nM, respectively. The EC50 is 9100 nM in the test on BXPC-3; 8100 nM in [4]; more than 10000 nM in the test with K562; 4600 nM in the test on MV4-11; 2600 nM in test [5].

Regarding `Fc1ccc(Nc2nc3c(-c4nnc[nH]4)cccc3c3sccc23)cc1`, the concentration for half-maximal inhibition (IC50) turned out to be 4 nM in test [1], 7 nM in test [2] and 7 nM in test [3]. In addition, the half-maximal effective concentration (EC50) with BXPC-3 is more than 30000 nM; in test [4], more than 30000 nM; in the test with K562, more than 10000 nM; in the test with MV4-11, more than 10000 nM; in test [5], 6600 nM.

With `Fc1ccc(Nc2nc3c(-c4nnc[nH]4)cccc3c3sccc23)c(F)c1`, the IC50 in test [1] was found to be 2 nM; in test [2], 2 nM; in test [3] it was 11 nM. Moreover, the EC50 is more than 30000 nM in the test on BXPC-3; more than 30000 nM in test [4]; 4800 nM in the test on K562; 1700 nM in the test on MV4-11; 4600 nM in [5].

Take `COc1ccc(Nc2nc3c(-c4nnc[nH]4)cccc3c3sccc23)cc1`: the IC50 in [1] was 4 nM; in test [2], 6 nM; in [3] it was 5 nM. Moreover, the EC50 with BXPC-3 turned out to be 28000 nM; in [4], 8200 nM; with K562 it was 7200 nM; in the test with MV4-11, 6500 nM; in test [5] it was 7400 nM.

For `C#Cc1cccc(Nc2nc3c(-c4nnc[nH]4)cccc3c3sccc23)c1`, the IC50 was determined as 6 nM in [1], 5 nM in test [2] and 2 nM in test [3]. Besides, the EC50 in the test with BXPC-3 was found to be 24600 nM; in [4], 9600 nM; with K562, 6700 nM; in the test with MV4-11, 5400 nM; in [5], 9300 nM.

Consider `O=C(O)c1cccc2c1nc(Nc1ccccc1Cl)c1ccsc12`, for which the concentration for half-maximal inhibition (IC50) in test [1] came to 69 nM; in test [2], 121 nM; in test [3] it was 139 nM.

With `NC(=O)c1cccc2c1nc(Nc1ccccc1Cl)c1ccsc12`, the results for the IC50 in test [1], in test [2] and in [3] were 5 nM, 12 nM and 22 nM, respectively.

Regarding `CNC(=O)c1cccc2c1nc(Nc1ccccc1Cl)c1ccsc12`, the IC50 in test [1] was 5 nM; in [6], 5300 nM; in [2], 28 nM; in test [3] it was 48 nM.

With `Cc1cc2c(Nc3ccccc3F)nc3c(-c4nnc[nH]4)cccc3c2s1`, the IC50 in test [1] is 15 nM; in test [2] it was 6 nM; in test [3] it was 26 nM.
